We go through 22 molecules from patent US9670157B2, “Benzylamine derivatives” (KALVISTA PHARMACEUTICALS LIMITED, priority 2013, dated 2017).

In one assay the target is Human KLK1 (Homo sapiens (Human), UniProt P06870). Nature of the assay: Determination of the IC50 for KLK1. Format: biochemical. The following applies: 37° C., fluorogenic substrate H-DVal-Leu-Arg-AFC. The procedure: KLK1 inhibitory activity in vitro was determined using standard published methods (see e.g. Johansen et al., Int. J. Tiss. Reac. 1986, 8, 185; Shori et al., Biochem. Pharmacol., 1992, 43, 1209; Stürzebecher et al., Biol. Chem. Hoppe-Seyler, 1992, 373, 1025). Human KLK1 (Callbiochem) was incubated at 37° C. with the fluorogenic substrate H-DVal-Leu-Arg-AFC and various concentrations of the test compound. Residual enzyme activity (initial rate of reaction) was determined by measuring the change in optical absorbance at 410 nm and the IC50 value for the test compound was determined.
Sequence of Human KLK1 (P06870 25-262): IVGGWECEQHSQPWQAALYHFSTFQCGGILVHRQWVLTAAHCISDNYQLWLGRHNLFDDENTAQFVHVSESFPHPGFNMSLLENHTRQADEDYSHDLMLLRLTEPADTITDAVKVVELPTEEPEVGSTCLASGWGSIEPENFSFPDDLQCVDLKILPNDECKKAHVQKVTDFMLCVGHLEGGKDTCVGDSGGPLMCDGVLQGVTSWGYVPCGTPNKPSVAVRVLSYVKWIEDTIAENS

The target of a further assay is Human plasma kallikrein (Homo sapiens (Human), UniProt P03952). Nature of the assay: Determination of the IC50 for Plasma Kallikrein. The note with it: 37° C., fluorogenic substrate H-DPro-Phe-Arg-AFC; read-out: IC50 (human PKal). Format: biochemical. As to the method:
Human plasma kallikrein (Protogen) was incubated at 37° C. with the fluorogenic substrate H-DPro-Phe-Arg-AFC and various concentrations of the test compound. Residual enzyme activity (initial rate of reaction) was determined by measuring the change in optical absorbance at 410 nm and the IC50 value for the test compound was determined.

The term IC50 denotes the concentration at which inhibition is half-maximal.

Sequence of Human plasma kallikrein (P03952 391-638): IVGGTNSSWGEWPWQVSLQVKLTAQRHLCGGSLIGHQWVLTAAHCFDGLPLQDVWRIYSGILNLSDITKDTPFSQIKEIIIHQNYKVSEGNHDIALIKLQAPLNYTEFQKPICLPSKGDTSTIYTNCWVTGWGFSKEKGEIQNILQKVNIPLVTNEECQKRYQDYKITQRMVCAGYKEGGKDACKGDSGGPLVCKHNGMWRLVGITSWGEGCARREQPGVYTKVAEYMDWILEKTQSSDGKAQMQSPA
Sequence of Human plasma kallikrein (P03952 20-390 partner): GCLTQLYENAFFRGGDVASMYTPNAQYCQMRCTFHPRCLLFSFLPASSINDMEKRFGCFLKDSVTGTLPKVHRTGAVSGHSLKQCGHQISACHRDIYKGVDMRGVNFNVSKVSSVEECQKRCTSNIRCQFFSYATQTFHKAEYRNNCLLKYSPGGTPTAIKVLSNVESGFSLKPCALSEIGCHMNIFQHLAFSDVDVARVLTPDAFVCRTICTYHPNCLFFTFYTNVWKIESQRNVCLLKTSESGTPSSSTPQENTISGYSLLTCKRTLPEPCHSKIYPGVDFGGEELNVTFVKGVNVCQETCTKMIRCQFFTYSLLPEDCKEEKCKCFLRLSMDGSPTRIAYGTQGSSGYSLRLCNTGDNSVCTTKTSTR

Turning to `Cc1cc(CN)cc(C)c1CNC(=O)c1cn(Cc2ccnc(N3CCCC3)c2)nc1C(F)(F)F` [Example 129, 1-(2-Pyrrolidin-1-yl-pyridin-4-ylmethyl)-3-trifluoromethyl-1H-pyrazole-4-carboxylic acid 4-aminomethyl-2,6-dimethyl-benzylamide], the IC50 against Human KLK1 is more than 10000 nM; on Human plasma kallikrein, 24 nM.
As for `Cc1cc(C(=O)NCc2ccc(CN)cc2)c(C)n1Cc1ccc(-c2ccccc2)s1` [Example 22, 2,5-Dimethyl-1-(5-phenyl-thiophen-2-ylmethyl)-1H-pyrrole-3-carboxylic acid 4-aminomethyl-benzylamide], the IC50 is more than 10000 nM on Human KLK1 and 3270 nM at Human plasma kallikrein.
Turning to `Cc1cc(C(=O)NCc2ccc(CN)cc2)c(C)n1Cc1coc(-c2ccccc2)n1` [Example 18, 2,5-Methyl-1-(2-phenyl-oxazol-4-ylmethyl)-1H-pyrrole-3-carboxylic acid 4-aminomethyl-benzylamide], the IC50 against Human KLK1 is more than 10000 nM; on Human plasma kallikrein, 435 nM.
On the same counts, the results for `Cc1cnn(Cc2ccc(Cn3cc(C(=O)NCc4c(C)cc(CN)cc4C)cn3)cc2)c1` [Example 111, 1-[4-(4-Methyl-pyrazol-1-ylmethyl)-benzyl]-1H-pyrazole-4-carboxylic acid 4-aminomethyl-2,6-dimethyl-benzylamide] are more than 10000 nM and 1 nM.
On the same counts, the results for `Cc1cc(C(=O)NCc2ccc(CN)cc2)c(C)n1Cc1ccc(C(N)=O)cc1` [Example 63, 1-(4-Carbamoyl-benzyl)-2,5-dimethyl-1H-pyrrole-3-carboxylic acid 4-aminomethyl-benzylamide] are more than 10000 nM and 7340 nM.
Consider `Cc1nn(Cc2csc(-c3ccccc3)n2)cc1C(=O)NCc1ccc(CN)cc1` [Example 81, 3-Methyl-1-(2-phenyl-thiazol-4-ylmethyl)-1H-pyrazole-4-carboxylic acid 4-aminomethyl-benzylamide], for which the values for the IC50 against Human KLK1 and at Human plasma kallikrein were more than 10000 nM and 695 nM, respectively.
In the same order, the values of `Cc1cnn(Cc2ccc(Cn3nc(C)c(C(=O)NCc4c(C)cc(CN)cc4C)c3C)cc2)c1` [Example 116, 3,5-Dimethyl-1-[4-(4-methyl-pyrazol-1-ylmethyl)-benzyl]-1H-pyrazole-4-carboxylic acid 4-aminomethyl-2,6-dimethyl-benzylamide] are more than 10000 nM and 11700 nM.
Take `Cc1cc(C(=O)NCc2ccc(CN)cc2)c(C)n1Cc1ccc(OCc2ccccc2)cc1` [Example 60, 1-(4-Benzyloxy-benzyl)-2,5-dimethyl-1H-pyrrole-3-carboxylic acid 4-aminomethyl-benzylamide]: the IC50 was more than 10000 nM at Human KLK1 and 3120 nM at Human plasma kallikrein.
On the same counts, the results for `Cc1cnn(Cc2ccc(Cn3cc(C(=O)NCc4ccc(CN)cc4)nn3)cc2)c1` [Example 108, 1-[4-(4-Methyl-pyrazol-1-ylmethyl)-benzyl]-1H-[1,2,3]triazole-4-carboxylic acid 4-aminomethyl-benzylamide] are more than 10000 nM and 33 nM.
On the same counts, the results for `Cc1cnn(Cc2ccc(Cn3cnc(C(=O)NCc4c(C)cc(CN)cc4C)c3)cc2)c1` [Example 112, 1-[4-(4-Methyl-pyrazol-1-ylmethyl)-benzyl]-1H-imidazole-4-carboxylic acid 4-aminomethyl-2,6-dimethyl-benzylamide] are more than 10000 nM and 2 nM.
In the same order, the values of `COc1ccc(Cn2c(C)cc(C(=O)NCc3ccc(CN)cc3)c2C)cc1` [Example 61, 1-(4-Methoxy-benzyl)-2,5-dimethyl-1H-pyrrole-3-carboxylic acid 4-aminomethyl-benzylamide] are more than 10000 nM and 2990 nM.
With `Cc1cc(C(=O)NCc2ccc(CN)cc2)c(C)n1Cc1csc(-c2cccnc2)c1` [Example 8, 2,5-Dimethyl-1-(5-pyridin-3-yl-thiophen-3-ylmethyl)-1H-pyrrole-3-carboxylic acid 4-aminomethyl-benzylamide], the IC50 turned out to be 6360 nM against Human KLK1 and 348 nM on Human plasma kallikrein.
On the same counts, the results for `Cc1cc(C(=O)NCc2ccc([C@@H](C)N)cc2)c(C)n1Cc1csc(-c2ccccc2)n1` [Example 48, 2,5-Dimethyl-1-(2-phenyl-thiazol-4-ylmethyl)-1H-pyrrole-3-carboxylic acid 4-((R)-1-amino-ethyl)-benzylamide] are more than 10000 nM and 624 nM.
In the same order, the values of `Cc1cc(C(=O)NC2(c3ccc(CN)cc3)CC2)c(C)n1Cc1csc(-c2ccccc2)n1` [Example 52, 2,5-Dimethyl-1-(2-phenyl-thiazol-4-ylmethyl)-1H-pyrrole-3-carboxylic acid [1-(4-aminomethyl-phenyl)-cyclopropyl]-amide] are more than 10000 nM and 475 nM.
In the same order, the values of `Cc1ccc2cc(Cn3c(C)cc(C(=O)NCc4c(C)cc(CN)cc4C)c3C)ccc2n1` [Example 128, 2,5-Dimethyl-1-(2-methyl-quinolin-6-ylmethyl)-1H-pyrrole-3-carboxylic acid 4-aminomethyl-2,6-dimethyl-benzylamide] are 2660 nM and 934 nM.
On to `Cc1cc(C(=O)NCc2ccc(CN)cc2)c(C)n1Cc1cccc(-c2ccncc2)c1` [Example 72, 2,5-Dimethyl-1-(3-pyridin-4-yl-benzyl)-1H-pyrrole-3-carboxylic acid 4-aminomethyl-benzylamide], for which the IC50 was more than 10000 nM against Human KLK1 and 3020 nM at Human plasma kallikrein.
On the same counts, the results for `Cc1cc(C(=O)NCc2ccc(CN)cc2F)c(C)n1Cc1csc(-c2ccccc2)n1` [Example 47, 2,5-Dimethyl-1-(2-phenyl-thiazol-4-ylmethyl)-1H-pyrrole-3-carboxylic acid 4-aminomethyl-2-fluoro-benzylamide] are more than 10000 nM and 74 nM.
On the same counts, the results for `CC(=O)NCc1ccc(Cn2c(C)cc(C(=O)NCc3ccc(CN)cc3)c2C)cc1` [Example 68, 1-[4-(Acetylamino-methyl)-benzyl]-2,5-dimethyl-1H-pyrrole-3-carboxylic acid 4-aminomethyl-benzylamide] are more than 10000 nM and 2090 nM.
In the same order, the values of `Cc1cc(C(=O)NCc2ccc(CN)cc2)c(C)n1Cc1cccc(N2CCCCC2)c1` [Example 74, 2,5-Dimethyl-1-(3-piperidin-1-yl-benzyl)-1H-pyrrole-3-carboxylic acid 4-aminomethyl-benzylamide] are more than 10000 nM and 1580 nM.
On to `Cc1nc(-c2ccc(Cn3c(C)cc(C(=O)NCc4ccc(CN)cc4)c3C)s2)cs1` [Example 23, 2,5-Dimethyl-1-[5-(2-methyl-thiazol-4-yl)-thiophen-2-ylmethyl]-1H-pyrrole-3-carboxylic acid 4-aminomethyl-benzylamide], for which the IC50 is more than 10000 nM against Human KLK1 and 1600 nM on Human plasma kallikrein.
On the same counts, the results for `Cc1cnn(Cc2ccc(Cn3cc(C(=O)NCc4c(C)cc(CN)cc4C)c(C(F)(F)F)n3)cc2)c1` [Example 118, 1-[4-(4-Methyl-pyrazol-1-ylmethyl)-benzyl]-3-trifluoromethyl-1H-pyrazole-4-carboxylic acid 4-aminomethyl-2,6-dimethyl-benzylamide] are more than 10000 nM and 1 nM.
In the case of `Cc1cc(C(=O)NCc2ccc(CN)cc2)c(C)n1Cc1ccccc1` [Example 55, 1-Benzyl-2,5-dimethyl-1H-pyrrole-3-carboxylic acid 4-aminomethyl-benzylamide], the IC50 at Human plasma kallikrein amounted to 3270 nM.
